Reference: patent US20130295179A1, “NOVEL OMEGA-3 AND OMEGA-6 FATTY ACID COMPOSITIONS AND USES THEREOF” (priority 2010, published 2013)
Several values for one entry are separate records, joined by “and”; a condition that tells them apart may be missing. Identical values can stand only once.

Assays:
Type in all cases: in vivo, human
[1] = test system: Newly diagnosed ADHD children; assay: RCT of omega-3/6 alone or in combination with methylphenidate, one year follow-up (Example 6); settings: evaluated by the parents
Experimental: Newly diagnosed ADHD children of both genders, 6 to 12 years old, were included in a RCT with one year follow-up in a 3-arm design (A: Omega-3/6; B: Omega 3/6+MTP; and C: MTP). The omega-3/6 fatty acid dosage used was EPA/DHA/GLA (9:3:1) in a total of 792 mg/day (Equazen™). MTP was prescribed in a dosage of 1 mg/kg/day (titration).
The ADHD diagnosis and follow up were made using the Diagnostic and Statistical Manual of Mental Disorders fourth edition (DSM-IV) scale, the ADHD Rating Scale Spanish version (ADHD-RS-VE), and the CEAL (Latin-American scale for ADHD) and overall clinical impression (CGI). For clinically meaningful response, a reduction of at least 25% of the symptoms was used. The adverse events (AE) were evaluated by the parents based on the impact on the patients.

[2] = test system: children between 6 and 12 years of age with a newly diagnosed ADHD; assay: Continuity in the study, withdrawals and MTP dose needed, randomized pilot trial (Example 7); settings: 12 months, n = 30 per group
Experimental: The trial was performed at the Neurology Department of the Hospital Infantil de México Federico Gomez (Health National Institute for children's in Mexico) as a randomized pilot trial. Three treatment groups were compared: group A: MTP; group B: Omega 3/6; group C: MTP+Omega 3/6. Subjects were randomized to one of these groups after screening. After inclusion to the trial, the subjects underwent three different trial periods: the 4 weeks titration period (only for the group A and group C in relation to the MTP), the 12 months evaluation period and the 6 months follow up period (FIG. 1) […]
The stimulant used in this trial was short or long acting methylphenidate (hereafter termed MTP). The daily dose was calculated to start at a concentration of 0.5 mg/kg/day to reach a maximum of 1 mg/kg/day depending on the response and the tolerance. […]
For clinically meaningful response, definition of clinical trials with ADHD medications was used, that is: a reduction of at least 25% of the symptoms scores on the ADHD-RS scale. […] The overall clinical impression of symptom severity and functional impairment was measured with the CGI severity scale, which is a clinician rating of the patient's symptom severity related to the clinician's total experience with ADHD patients. […]

[3] = test system: children between 6 and 12 years of age with a newly diagnosed ADHD; assay: ADHD Rating Scale Spanish version (parent ADHD-RS-SV), randomized pilot trial (Example 7)
Experimental: (§1) The trial was performed at the Neurology Department of the Hospital Infantil de México Federico Gomez (Health National Institute for children's in Mexico) as a randomized pilot trial. Three treatment groups were compared: group A: MTP; group B: Omega 3/6; group C: MTP+Omega 3/6. Subjects were randomized to one of these groups after screening. After inclusion to the trial, the subjects underwent three different trial periods: the 4 weeks titration period (only for the group A and group C in relation to the MTP), the 12 months evaluation period and the 6 months follow up period (FIG. 1)
(§2) A total of 107 children between 6 and 12 years of age with a newly diagnosed ADHD entered the screening phase of the trial. The presence of any previous ADHD treatment was an exclusion criterion. 17 children were screening failures and could not be included to the trial. After written informed consent by the parents or tutors of the children, a total of 90 patients were distributed to the three groups following a randomization to the three groups against a set of arbitrary numbers.
Inclusion criteria: Patients from 6 to 12 years old, diagnosed as having attention-deficit hyperactivity disorder by the DSM-IV, agreement to take part in the survey (letter of informed consent signed by the parent or tutor and letter of acknowledgement). Exclusion criteria: any Axis I psychiatric diagnosis other than ADHD except oppositional defiant behaviour disorder, neurological deficit, seizures or tics; previous treatment of suitable doses of methylphenidate; patients with known hypersensitivity to omega-3.
(§3) The omega-3/omega6 fatty acid supplement was used. The daily dosage of this omega 3/6 was of three capsules twice daily, corresponding to a daily dose of 558 mg EPA, 174 mg DHA and 60 mg gamma-linolenic. This specific product was chosen because it was the product and the daily dosage used in three previous clinical studies showing significant positive improvements on ADHD related symptoms without showing significant adverse events.
(§4) The stimulant used in this trial was short or long acting methylphenidate (hereafter termed MTP). The daily dose was calculated to start at a concentration of 0.5 mg/kg/day to reach a maximum of 1 mg/kg/day depending on the response and the tolerance. The doses were adjusted weekly.
(§5) Clinical assessments were made at four time points: at baseline, after 3 months, after 6 months and after 12 months. The study consisted in six stages with a total of 12 visits including the screening visit (screening visit 0) and the period of selection and titration of the medication in the case of the group A & C (first 4 weeks). At baseline all the included patients were newly diagnosed with ADHD being drug-naïve (no previous treatment with omega 3/6, MTP or atomoxetine was permitted). ADHD diagnosis was made for patients who met DMS-IV criteria of any subtype and by using the ADHD-RS-VE (Spanish version) and the CEAL (Latin American scale for ADHD). The presence of any associated condition (comorbidity) was assessed by clinical interview according to DSM-IV criteria. The investigator made a medical evaluation, including weight, height, cephalic perimeter, neurological evaluation, sleep patrons and other comorbidities. A questionnaire for the symptoms of fatty acids deficiency was applied, where 0 means without symptoms and 3 with a high degree of symptoms. We analyzed blood samples for biometry hematic and hepatic function.
(§6) For clinically meaningful response, definition of clinical trials with ADHD medications was used, that is: a reduction of at least 25% of the symptoms scores on the ADHD-RS scale. The other important variable was the permanence time in the study measuring efficacy and tolerability. The overall clinical impression of symptom severity and functional impairment was measured with the CGI severity scale, which is a clinician rating of the patient's symptom severity related to the clinician's total experience with ADHD patients. […]

[4] = test system: children between 6 and 12 years of age with a newly diagnosed ADHD; assay: Clinical Global Impression (CGI) severity, randomized pilot trial (Example 7)
Experimental: as §1, §2, §3, §4, §5, §6

[5] = test system: children between 6 and 12 years of age with a newly diagnosed ADHD; assay: Side effects / adverse events, randomized pilot trial (Example 7)
Experimental: as §1, §2, §3, §4
The patients was evaluated at baseline including a physical examination, including height and weight, pulse and blood pressure, a neuromotor examination and assessment of the general level of functioning with CGI. We evaluated each week for the first four weeks and each month for a year. The adverse events (AE) were evaluated at any clinic event appointed by the parents and with an impact over the patients, independently if it was associated or not with the medication. This includes exacerbation of the preexistence symptoms. It was important to note the moment of these AE.

[6] = in % of the subjects, n = 30 per group

SMILES: COC(=O)C(c1ccccc1)C1CCCCN1 (stereo not drawn) [MTP, methylphenidate]
- most frequent AE [1]: weight reduction, hyporexia, and anxiety
- patients who left the study because of side effects [2]: 6 patients
- patients who withdrew for lack of efficacy [2]: 2 patients
- ADHD RS total score after one month ([3]; after one month treatment): 27.6±4.97
- response of the hyperactivity symptom ([3]; comparison of the three treatments): greater impact
- ADHD RS, total score, After 3 months ([3]; mean, after 3 months): 25.29 ± 4.18
- Hyperactive/impulsive subscale, After 3 months ([3]; mean, after 3 months): 13.25±3.05
- Inattentive subscale, After 3 months ([3]; mean, after 3 months): 12.04±1.78
- ADHD RS, total score, After 12 months ([3]; mean, after 12 months): 23.55 ± 1.72
- Hyperactive/impulsive subscale, After 12 months ([3]; mean, after 12 months): 12.1±1.29
- Inattentive subscale, After 12 months ([3]; mean, after 12 months): 11.45±1.32
- ADHD RS, total score, Baseline ([3]; mean, baseline): 41.43±4.32 and 41.43 ± 4.39
- Hyperactive/impulsive subscale, Baseline ([3]; mean, baseline): 19.93±5.11
- Inattentive subscale, Baseline ([3]; mean, baseline): 21.47±3.20
- CGI severity category reached after treatment ([4]; from marked/severe before the treatment): mild/moderate
- investigator rated CGI, baseline ([4]; scale 1 (normal) to 7, baseline mean): 6.30±0.65
- investigator rated CGI, first treatment month ([4]; scale 1 to 7, 1 month): 3.67±1.21
- investigator rated CGI severity at 3 months ([4]; scale 1 to 7, 3 months): 4.42±1.02
- investigator rated CGI severity at 6 months ([4]; scale 1 to 7, 6 months): 3.75±0.44 and 3.90±0.45
- Headache [5, 6]: 23.3%
- Hiporexia [5, 6]: 53.3%
- Irritability [5, 6]: 16.7%
- Pallor [5, 6]: 16.7%
- Palpitation [5, 6]: 13.3%
- Seasickness [5, 6]: 1.0%
- Sleeplessness [5, 6]: 6.7%
- Tension [5, 6]: 16.7%
- Tics [5, 6]: 6.7%
- Tremor [5, 6]: 1.0%
- hyporexia, number of patients ([5]; of 30 per group): 16 patients
